Assay results taken from US10780069B2, “Use of GC-1 in transplant related population” (University of Pittsburgh—Of the Commonwealth System of …, priority 2017, dated 2020).
“Also recorded” adds a separate entry of the source.

How the values were obtained:
hepatocytes [1] = test: T3- or GC-1-supplemented diet in wild type mice: hepatocyte proliferation; format: in vivo
Protocol: All studies on mice were performed in strict accordance with Guidelines. Eight-week old male C57BL/6 male mice (Jackson/Charles River) were maintained on a standard laboratory basal diet (Test Diet) (n=4), or fed a T3-supplemented diet (4 mg/Kg of diet, Sigma Chemicals, St. Louis Mo.) (n=4). GC-1 was administered to the eight week-old male C57BL/6 male mice either via GC-1-supplemented diet (5 mg/Kg of diet, Medchem Express) for 8 days (n=4) or via daily intraperitoneal injections (IP) of GC-1 dissolved in DMSO (0.3 mg/kg/dose) for 8 days (n=7). As a control group for injections, DMSO alone was injected daily intraperitoneal (IP) for 8 days (n=5). Mice were sacrificed 24 hours after the last injection.
(§1) To label dividing hepatocytes, BrdU (5-bromodeoxyuridine) dissolved in drinking water (1 mg/ml) was given to all animals throughout the experiment period. The animals were given food and water ad libitum with a 12-hour light/dark daily cycle.
(§2) Four micron liver sections were analyzed by immunohistochemistry for β-Catenin (BD Biosciences, San Jose, Calif.), Cyclin-D1 (Thermo-Scientific, Fremont, Calif.) and PCNA (Santa Cruz Biotechnology, Dallas, Tex.). Briefly, formalin-fixed sections were deparaffinized in graded xylene and alcohol. Endogenous peroxidase was inactivated using 3% hydrogen peroxide (Sigma). For β-Catenin, Cyclin-D1 staining, slides were microwaved in Citrate buffer followed by blocking with Superblock for 10 minutes. Sections were then incubated with secondary anti-mouse (for β-catenin) or anti-rabbit (for Cyclin-D1) horseradish peroxidase-conjugated antibody for 30 minutes.
(§3) Bromodeoxyuridine (BrdU) was stained with mouse antibody (Becton Dickinson) as previously described (Fanti et al. (2014) Hepatology 59, 2309-2320). Briefly, tissue sections were deparaffinized, exposed to 0.3% hydrogen peroxide in deionized water for 10 minutes to block endogenous peroxidase, treated with 2N HCl, incubated with trypsin 0.1% for 20 minutes and then with normal goat serum for 20 minutes at room temperature. Sections were then incubated overnight in cold room with anti-BrdU monoclonal antibody, followed by biotinylated goat anti-mouse IgG. DAB kit was then applied, and sections were counterstained with hematoxylin. A small segment of intestine was included from each mouse as a positive control for the staining. For quantification of BrdU staining, at least 10 high power fields (400× or 600×) fields each from at least three biological replicates were counted as indicated in the figures. Statistical analysis was performed as described below.

hepatocytes [2] = test: Partial hepatectomy after pretreatment with T3 or GC-1 supplemented diet; format: in vivo, mice
Protocol: as §1
After 7 days of receiving T3 supplemented diet (n=3) or GC-1 diet (n=3) or standard basal mouse chow (n=3), C57BL/6 male mice underwent partial hepatectomy as described previously (Tan et al. (2006) Gastroenterology 131, 1561-1572). Anesthesia was provided with inhaled Isoflurane. The animals were sacrificed 24 hours post hepatectomy, after Isoflurane anesthesia and cervical dislocation. Serum and liver tissue were harvested for further processing.
as §2, §3

[3] = tested on: β-catenin-TCF4 reporter activity in Hep3B cells (wild-type CTNNB1); test: TopFlash reporter assay in Hep3B cells; format: cell-based, human; conditions: 7 μM GC-1 (methods: 5-7 μM, 24 hours), vs DMSO
From the text: (§4) Three liver tumor cell lines Hep3B, HepG2 and Snu-398 cells were obtained from ATCC (Manassas, Va.). Cells were transfected simultaneously with Renilla reniformis luciferase (pRL-TK; Promega, Madison, Wis.) as a transfection control and TopFlash firefly luciferase plasmids (Upstate Biotechnology, Lake Placid, N.Y.), which contains three copies of the Tcf/Lef sites upstream of a thymidine kinase (TK) promoter and the firefly luciferase gene using Lipofectamine 2000 (Life Technologies). Twenty-four hours after transfection, cells were treated with either DMSO (Fisher Scientific) or 5-7 μM GC-1 (Medchem Express, Monmouth Junction, N.J.) for 24 hours. Lysates were harvested using the Dual-Luciferase Reporter Assay System (Promega, Madison, Wis.). Firefly luciferase signals were normalized to Renilla luciferase and ratio between groups compared by student's t-test to determine significance. P<0.05 was considered significant.

[4] = tested on: β-catenin-TCF4 reporter activity in Snu-398 cells (point-mutant β-catenin); test: TopFlash reporter assay in Snu-398 cells; format: cell-based, human; conditions: 7 μM GC-1 (methods: 5-7 μM, 24 hours), vs DMSO
From the text: as §4

hepatocytes [5] = test: GC-1 or T3 in hepatocyte specific β-catenin knockout mice (β-Cat LKO) and littermate controls; format: in vivo; conditions: control mice, GC-1 treated vs basal diet
[6] = tested on: preneoplastic hepatocytes; conditions: resistant-hepatocyte model of hepatocarcinogenesis (T3, rats); Ledda-Columbano 2000, Perra 2009; cited from earlier work

Cc1cc(OCC(=O)O)cc(C)c1Cc1ccc(O)c(C(C)C)c1 [GC-1, Sobetirome]
hepatocyte proliferation relative to T3 (hepatocytes [1]; GC-1 diet versus T3 diet, 8 days): modestly less extent than T3
BrdU incorporation (hepatocytes [1]; T3 (4 mg/Kg of diet) or GC-1 (5 mg/Kg of diet) chow 8 days, vs basal diet): increased BrdU incorporation
cyclin-D1 staining in hepatocytes (hepatocytes [1]; T3 diet or IP GC-1, 8 days, vs respective controls): notably increased cyclin-D1 staining
cyclin-D1 staining in hepatocytes (hepatocytes [1]; T3 or GC-1 supplemented diet 8 days, vs basal diet): increased in both groups
BrdU-positive hepatocytes, T3 diet versus IP GC-1 (hepatocytes [1]; T3 supplemented diet versus IP GC-1, 8 days, p<0.001 between groups): overall fewer number of BrdU-positive hepatocytes
nuclear cyclin-D1 immunohistochemistry at 24 hours after hepatectomy (hepatocytes [2]; 24 hours after hepatectomy): panlobular distribution
BrdU positive hepatocyte nuclei at 24 hours after hepatectomy (hepatocytes [2]; diet pretreatment, vs basal diet): pronounced increase
increase in hepatocyte proliferation over the 24-hour liver regeneration period (hepatocytes [2]; pre-hepatectomy vs 24 hour-post hepatectomy, same animals, all three mice): around 2 fold
cyclin-D1 immunohistochemistry in resected lobes at time of hepatectomy (hepatocytes [2]; pretreatment livers): expansion of cyclin-D1 positive hepatocytes in the midzonal area
BrdU-positive hepatocytes in resected lobes at time of hepatectomy (hepatocytes [2]; seven-day pretreatment, vs basal diet): increased BrdU-positive hepatocytes
TopFlash luciferase reporter activity [3]: no significant effect; also recorded: insignificant differences
TopFlash luciferase reporter activity [4]: no significant effect; also recorded: insignificant differences
active-β-catenin, Western blot (hepatocytes [5]): notable increase
effect on preneoplastic lesions / carcinogenic process [6]: negatively influence the carcinogenic process
